Experimental data reported in BindingDB's records for doi:10.1016/j.bioorg.2009.09.001 (University of Ljubljana, 2009).

Tests used:
Assay in all cases: Enzymatic Assay
Details in all cases: pH 8; 37 °C
[1] = target: T1, UDP-N-acetylmuramoyl-tripeptide--D-alanyl-D-alanine ligase (Escherichia coli (strain K12), UniProt P11880)
T1 sequence (P11880 whole entry): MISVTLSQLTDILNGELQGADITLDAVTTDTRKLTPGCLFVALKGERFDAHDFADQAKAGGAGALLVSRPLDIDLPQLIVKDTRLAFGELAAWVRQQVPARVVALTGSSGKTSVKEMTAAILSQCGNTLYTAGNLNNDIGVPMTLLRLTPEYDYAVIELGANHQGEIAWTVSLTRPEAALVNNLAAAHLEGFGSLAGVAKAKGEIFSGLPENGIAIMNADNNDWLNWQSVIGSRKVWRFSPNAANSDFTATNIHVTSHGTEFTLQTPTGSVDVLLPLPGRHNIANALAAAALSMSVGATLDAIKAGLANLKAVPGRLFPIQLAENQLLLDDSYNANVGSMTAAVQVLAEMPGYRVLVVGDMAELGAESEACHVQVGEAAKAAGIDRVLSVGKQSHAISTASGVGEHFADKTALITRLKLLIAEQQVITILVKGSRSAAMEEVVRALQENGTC
Method: (§1) Compounds were tested for their inhibition of the addition of L-Ala, D-Glu, L-Lys or D-Ala-D-Ala to nucleotide precursors catalyzed by MurC from Escherichia coli, MurD from E. coli, MurE from Staphylococcus aureus, and MurF from E coli. The detection of the orthophosphate generated during the reaction was based on the colorimetric Malachite green method.

[2] = target: T2, UDP-N-acetylmuramoyl-L-alanyl-D-glutamate--L-lysine ligase (Staphylococcus aureus (strain NCTC 8325 / PS 47), UniProt Q2FZP6)
T2 sequence (Q2FZP6 whole entry): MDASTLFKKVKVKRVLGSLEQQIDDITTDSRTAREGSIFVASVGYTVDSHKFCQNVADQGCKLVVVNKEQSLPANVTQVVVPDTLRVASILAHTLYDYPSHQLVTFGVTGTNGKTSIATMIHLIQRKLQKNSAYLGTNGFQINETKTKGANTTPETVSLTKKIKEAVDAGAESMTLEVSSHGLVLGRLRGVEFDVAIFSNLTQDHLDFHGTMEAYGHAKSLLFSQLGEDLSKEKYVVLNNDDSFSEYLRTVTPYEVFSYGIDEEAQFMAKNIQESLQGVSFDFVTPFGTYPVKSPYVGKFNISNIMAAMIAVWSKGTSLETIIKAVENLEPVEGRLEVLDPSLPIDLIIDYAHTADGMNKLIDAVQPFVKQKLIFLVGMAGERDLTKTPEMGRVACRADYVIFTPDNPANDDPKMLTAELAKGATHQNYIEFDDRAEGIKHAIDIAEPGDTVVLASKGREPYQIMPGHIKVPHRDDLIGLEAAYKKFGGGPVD
Method: as §1

[3] = target: UDP-N-acetylmuramate--L-alanine ligase (Escherichia coli (strain K12), UniProt P17952)
Chain of UDP-N-acetylmuramate--L-alanine ligase (P17952 whole entry): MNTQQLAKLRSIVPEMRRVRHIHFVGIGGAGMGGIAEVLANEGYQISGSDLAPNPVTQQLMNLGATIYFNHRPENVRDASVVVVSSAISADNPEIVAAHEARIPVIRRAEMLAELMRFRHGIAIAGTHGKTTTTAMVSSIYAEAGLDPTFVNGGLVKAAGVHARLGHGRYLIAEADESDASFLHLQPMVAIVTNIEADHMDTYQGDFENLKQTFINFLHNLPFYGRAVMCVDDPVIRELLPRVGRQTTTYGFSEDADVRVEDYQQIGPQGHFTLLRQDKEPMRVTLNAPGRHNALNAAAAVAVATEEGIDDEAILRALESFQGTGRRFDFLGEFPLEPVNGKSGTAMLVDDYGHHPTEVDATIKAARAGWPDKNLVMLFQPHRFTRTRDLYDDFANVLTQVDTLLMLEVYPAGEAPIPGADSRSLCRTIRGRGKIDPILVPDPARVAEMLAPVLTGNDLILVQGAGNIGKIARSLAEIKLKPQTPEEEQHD
Method: as §1

Row | Structure (SMILES) | IC50 [1] [µM] | IC50 [2] [µM] | IC50 [3] [µM]
1 | O=P(O)(O)OC(CNS(=O)(=O)c1ccc(C(F)(F)F)cc1)CN1CCOCC1 (stereo not drawn) [MurC/D/E/F inhibitor (compound 68)] | 240 | 57 | 200
2 | O=P(O)(O)OC(CNS(=O)(=O)c1cccc(C(F)(F)F)c1)CN1CCOCC1 (stereo not drawn) [HEA derivative, 7d] | 150 | 160 | 530
3 | COc1ccc(S(=O)(=O)NCC(CN2CCOCC2)OP(=O)(O)O)cc1 (stereo not drawn) | 530 | 6 | 490
4 | O=P(O)(O)OC(CNS(=O)(=O)c1ccc(F)cc1)CN1CCOCC1 (stereo not drawn) [HEA derivative, 7b] | 270 | 120 | 790
5 | CCc1ccc(S(=O)(=O)NCC(CN2CCOCC2)OP(=O)(O)O)cc1 (stereo not drawn) [HEA derivative, 7f] | 360 | 61 | 760
6 | Cc1ccc(S(=O)(=O)NCC(CN2CCOCC2)OP(=O)(O)O)cc1 (stereo not drawn) [HEA derivative, 7e] | 560 | 120 | 540
